Tests used:
[1] = Unconjugated (free) drug by reverse phase HPLC analysis of the conjugate sample; details: N901-DM1 conjugate, 1.7-fold DM1
Method: (§1) The increased efficiency of conjugation using the SSNPP linker is accomplished without compromise in the monomeric character of the conjugate and in the amount of unconjugated (free) drug associated with the antibody conjugate. SEC analysis is used to determine the amount of monomer, dimer, trimer, or higher molecular weight aggregates. The level of unconjugated drug was measured by reverse phase HPLC analysis of the conjugate sample. The percent free drug for either reaction was less than 2%. In addition, shorter conjugation reaction times are possible with SSNPP compared with SPP (5), which may decrease loss of some antibodies that are sensitive to prolonged exposure to organic solvent required in the conjugation reaction. Shorter reaction times should also decrease drug loss due to DM1 dimerization, which is a competing side reaction during conjugation. The resulting increases in yield and reduced side reactions should further contribute to reduced DM1 requirements.

[2] = SEC analysis of conjugate (monomer, dimer, trimer, higher molecular weight aggregates); type: physicochemical; details: N901-DM1 conjugate; conjugation at pH 7.4, 2 hours, 1.7-fold DM1
Method: as §1

[3] = test system: N901 antibody with DM1; experiment: Conjugation (disulfide exchange) of linker-modified N901 antibody with DM1; set-up: species or system murine; details: pH 7.4; 1.1-fold molar excess of DM1 per linker; compared with SPP-modified antibody
Method: SPP or SSNPP linker was dissolved in ethanol at a concentration of approximately 10 mM. Antibody was dialyzed into buffer A (50 mM KPi, 50 mM NaCl, 2 mM EDTA, pH 6.5). For the linker reaction, the antibody was at 8 mg/ml, and 7 equivalents of linker were added while stirring in the presence of 5% (v/v) ethanol. The reaction was allowed to proceed at ambient temperature for 90 minutes. Unreacted linker was removed from the antibody by Sephadex G25 gel filtration using a Sephadex G25 column equilibrated with Buffer A at pH 6.5 or 150 mM potassium phosphate buffer containing 100 mM NaCl, pH 7.4 as indicated. For the SPP linker, the extent of modification was assessed by release of pyridine-2-thione using 50 mM DTT and measuring the absorbance at 343 nm as described below (ε343=8080 M^−1 cm^−1 for free pyridine-2-thione). For SSNPP, modification was assessed directly by measuring the absorbance at 325 nm (ε325=10,964 M^−1 cm^−1 for the 4-nitropyridyl-2-dithio group linked to antibody). […] For DML, the extent of drug conjugation to antibody was assessed by measuring A252 and A280 of the conjugate as described below. […]
Calculating Ab and DM1 component concentrations of Ab-DM1. […] The components are quantified using the following algebraic expressions which account for the contribution of each component at each wavelength (CAb is the molar concentration of Ab and CD is the molar concentration of DM1): […]

[4] = Solubility of cross-linkers in water / aqueous solutions; type: physicochemical

SMILES	% free drug ([1]; conjugation at pH 6.5, 2 hours) [%]	% free drug ([1]; conjugation at pH 7.4, 2 hours) [%]	SEC Analysis Dimer [2] [%]	SEC Analysis HMW [2] [%]	SEC Analysis Monomer [2] [%]	SEC Analysis Trimer [2] [%]	time course of the reaction of DM1 with modified antibody (FIG. 8) [3]	solubility in water / aqueous solutions [4]
CC(CCC(=O)ON1C(=O)CCC1=O)SSc1ccccn1 (centres unmarked) [SPP, reference compound]	1.9	1.8	4.9	0.2	93.6	0.4	–	–
CC(CCC(=O)ON1C(=O)CC(S(=O)(=O)O)C1=O)SSc1ccc([N+](=O)[O-])cn1 (centres unmarked) [SSNPP, N-Sulfosuccinimidyl 4-(5-nitro-2-pyridyldithio)-pentanoate]	0.9	0.8	6.3	0.1	91.9	0.6	considerably faster	highly water-soluble

From patent US6913748B2, “Cross-linkers with high reactivity and solubility and their use in the preparation of conjugates for targeted delivery of small molecule drugs” (Immunogen, Inc., priority 2002, dated 2005)
